One series can be described thus: in vivo. To be noted: mouse, in vivo, iv, 3 mg/kg.
Another series has as its system MDA-MB-435. Briefly: In vitro proliferation assay (MTT), MDA-MB-435. It is filed as cell-based, human. To be noted: value (SD, n) where given, read-out: MB-435 Breast (IC50 µM). Summed up: (§1)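 Following 3 days of compound treatment, MTT was added and the dye dissolved in DMSO for 570 nm absorbance; IC50s derived from these raw readings. Seeding density 1000 to 2500 cells/well depending on line, with overnight recovery before dosing.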

The next series has as its target cdk1/cyclin B (Homo sapiens, UniProt P06493). Briefly: Cyclin-dependent kinase assay, cdk1/cyclin B.
A further series deals with cdk4/cyclin D1 (Homo sapiens, UniProt P11802). Briefly: Cyclin-dependent kinase assay, cdk4/cyclin D1. It is filed as biochemical.
In another series the target is cdk2/cyclin E (Homo sapiens, UniProt P24941). The series can be described thus: Cyclin-dependent kinase assay, cdk2/cyclin E.
The test system of another series is PC-3. The series can be described thus: In vitro proliferation assay (MTT), PC-3. In kind it is cell-based, human. The note with it: value (SD, n) where given, read-out: PC-3 Prostate (IC50 µM). Summed up:
as §1

Where [1] appears, read: Homo sapiens, MDA-MB-435, MTT assay.
Where [2] appears, read: CDK1 IC50, nM, Histone H1, 10 µM ATP.
Where [3] appears, read: cyclin D1/cdk4, GST-pRb substrate, 10 µM ATP.
Setting [4] is: CDK2 IC50, nM, GST-pRb substrate, 10 µM ATP.

The results in this text go back to patent publication EP1377579B1 (Aventis Pharmaceuticals Inc., priority 2000, dated 2002).

Structures can show the parent of a compound that is named as a salt. Where two headings read alike, the source gives them in different places.

Chain of cdk4/cyclin D1 (P11802 whole entry): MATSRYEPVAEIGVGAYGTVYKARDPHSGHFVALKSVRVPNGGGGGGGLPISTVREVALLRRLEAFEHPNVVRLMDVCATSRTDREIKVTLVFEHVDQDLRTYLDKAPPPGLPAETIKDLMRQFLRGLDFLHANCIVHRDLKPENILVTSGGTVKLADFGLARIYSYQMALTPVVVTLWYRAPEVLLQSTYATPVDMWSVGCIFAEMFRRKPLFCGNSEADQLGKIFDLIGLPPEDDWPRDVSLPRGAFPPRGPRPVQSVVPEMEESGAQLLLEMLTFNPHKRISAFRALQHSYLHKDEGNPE
Chain of cdk4/cyclin D1 (P24385 whole entry partner): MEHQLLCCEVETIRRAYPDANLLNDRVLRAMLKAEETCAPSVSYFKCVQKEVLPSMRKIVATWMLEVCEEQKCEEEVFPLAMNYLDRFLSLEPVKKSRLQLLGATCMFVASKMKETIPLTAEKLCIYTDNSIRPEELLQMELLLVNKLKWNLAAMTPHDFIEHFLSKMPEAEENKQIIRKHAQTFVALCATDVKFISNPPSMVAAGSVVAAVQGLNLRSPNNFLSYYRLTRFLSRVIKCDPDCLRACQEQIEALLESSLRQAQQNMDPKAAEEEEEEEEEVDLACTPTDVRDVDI
Chain of cdk1/cyclin B (P06493 whole entry): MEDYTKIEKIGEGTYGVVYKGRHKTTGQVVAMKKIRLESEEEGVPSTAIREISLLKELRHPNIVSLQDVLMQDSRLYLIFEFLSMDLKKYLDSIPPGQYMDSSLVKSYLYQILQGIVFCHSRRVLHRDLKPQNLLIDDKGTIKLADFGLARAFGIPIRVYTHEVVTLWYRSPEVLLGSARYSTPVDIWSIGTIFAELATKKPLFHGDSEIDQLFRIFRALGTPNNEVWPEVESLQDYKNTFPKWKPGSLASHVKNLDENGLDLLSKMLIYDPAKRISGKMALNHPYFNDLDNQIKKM
Chain of cdk1/cyclin B (P14635 whole entry partner): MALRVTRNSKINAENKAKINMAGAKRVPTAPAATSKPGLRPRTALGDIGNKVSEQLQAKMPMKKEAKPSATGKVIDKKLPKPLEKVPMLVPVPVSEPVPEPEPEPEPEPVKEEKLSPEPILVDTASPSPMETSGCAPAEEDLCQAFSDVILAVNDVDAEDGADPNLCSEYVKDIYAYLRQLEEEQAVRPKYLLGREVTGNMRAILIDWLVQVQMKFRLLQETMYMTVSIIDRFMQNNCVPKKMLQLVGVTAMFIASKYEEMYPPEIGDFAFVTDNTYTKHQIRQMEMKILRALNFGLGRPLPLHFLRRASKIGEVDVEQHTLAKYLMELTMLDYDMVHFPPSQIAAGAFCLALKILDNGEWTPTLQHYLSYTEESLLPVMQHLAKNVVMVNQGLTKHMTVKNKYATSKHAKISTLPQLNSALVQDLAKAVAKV
Protocol for in vivo: Male mice are given single intravenous cassette doses of CDK inhibitor compounds.
Doses are adjusted for the weight of the individual dihydrochloride and trihydrochloride salts. The compounds are stored desiccated within a closed cabinet at room temperature before use. Dose levels are prepared on the morning of each study.
A single intravenous cassette dose (18 or 15 mg/kg free base) is administered. For each compound, this is equivalent to a dose of approx. 3 mg/kg free base. […] The dose is administered at a volume of 10 ml/kg (total volume of approximately 0.25 ml/animal).
Male mice (Hsd:ICR (CD-1® SD®), Harlan), each weighing approximately 20 - 30 g at the start of the study. […] Water is available ad libitum throughout the study.
Dose Administration and Sample Collection: • A single cassette dose of 5-6 compounds is administered by bolus injection into the tail vein over a 10 - 15-second period. […] Whole blood (approximately 0.6 ml/sample) is obtained by cardiac puncture and transferred to 3 ml glass tubes containing 45 U sodium heparin.
Sample Processing: Plasma: Whole blood is centrifuged at approximately 3,200 rpm for 10 min at approximately 5°C and the plasma (approx. 0.3 ml/sample) is transferred to chilled plastic vials and stored at approx. -70°C until bioanalysis.
Sample Analysis: Concentrations of each test article in plasma are quantitated by a non-validated method based on LC/MS using the following protocol.
Samples are removed from the freezer, allowed to thaw at room temperature, and vortexed to insure complete homogenization prior to sample manipulation. Samples are then prepared according to the following scheme: • 1. transfer 48 µL of plasma (blank mouse sample) into a 12 x 75 mm test tube. • 2. add 12 µL of working standard to the blank plasma for standard curve preparation. • 3. […] Inject 25 µL on LC/MS.
Data Analysis: Concentrations of Compounds in plasma of individual animals are determined by bioanalytics. […] Statistical analyses are limited to simple expressions of variation (mean and standard deviation). The plasma AUC (area-under-curve) is determined by the linear trapezoidal rule. […] All PK parameters are determined by noncompartmental methods using WinNonlin version 3.0 (Pharsight Corp). Plasma vs. time profiles are prepared by Sigma Plot (SPSS, Inc.).

In the case of `NC1CCC(Nc2nc(NCCCc3ccccc3)c3ncn(C4CCCC4)c3n2)CC1` (stereo not shown) [MDL 107167], in the series “in vivo”, the total exposure AUC(0-inf) – broadly, total exposure, with the tail of the curve extrapolated – came to 531 ng·h/mL; the peak concentration (Cmax) (commonly the highest concentration seen after dosing) worked out at 512 ng/mL; the half-life – broadly, how long it takes for the measured level to halve – is 1.7 h.
In the case of `CCCCCNC(=O)N1CCC(Nc2nc(N[C@H]3CC[C@H](N)CC3)nc3c2ncn3C2CCCC2)CC1` [compound 184, trans-4-[2-(4-Amino-cyclohexylamino)-9-cyclopentyl-9H-purin-6-ylamino]-piperidine-1-carboxylic acid pentylamide dihydrochloride], the IC50 (commonly the concentration that inhibits the measured activity by half) turned out to be 0.71 µM in the series on MDA-MB-435 (setting [1]); 77 nM against cdk1/cyclin B (setting [2]); 377 nM against cdk4/cyclin D1 (setting [3]); 85 nM against cdk2/cyclin E (setting [4]); 0.71 µM with PC-3 (Homo sapiens, PC-3, MTT assay).
In the case of `CCCCCCNC(=O)N1CCC(Nc2nc(N[C@H]3CC[C@H](N)CC3)nc3c2ncn3C2CCCC2)CC1` [compound 185, trans-4-[2-(4-Amino-cyclohexylamino)-9-cyclopentyl-9H-purin-6-ylamino]-piperidine-1-carboxylic acid hexylamide dihydrochloride], the IC50 in the series on MDA-MB-435 (setting [1]) was 0.29 µM; against cdk1/cyclin B (setting [2]), 72 nM; on cdk4/cyclin D1 (setting [3]), 280 nM; against cdk2/cyclin E (setting [4]), 79 nM; in the series on PC-3 (Homo sapiens, PC-3, MTT assay) it was 0.41 µM.
The like results for `CC(=O)c1ccc(NC(=O)N2CCC(Nc3nc(N[C@H]4CC[C@H](N)CC4)nc4c3ncn4C3CCCC3)CC2)cc1` [compound 188, trans-4-[2-(4-Amino-cyclohexylamino)-9-cyclopentyl-9H-purin-6-ylamino]-piperidine-1-carboxylic acid (4-acetyl-phenyl)-amide dihydrochloride] were, in that order, 0.48 µM, 14 nM, 170 nM, 31 nM and 0.5 µM.
Turning to `CC(=O)c1cccc(NC(=O)N2CCC(Nc3nc(N[C@H]4CC[C@H](N)CC4)nc4c3ncn4C3CCCC3)CC2)c1` [compound 189, trans-4-[2-(4-Amino-cyclohexylamino)-9-cyclopentyl-9H-purin-6-ylamino]-piperidine-1-carboxylic acid (3-acetyl-phenyl)-amide dihydrochloride], the half-maximal inhibitory concentration (IC50) in the series with MDA-MB-435 (setting [1]) was 1 µM; at cdk1/cyclin B (setting [2]) it was 20 nM; at cdk4/cyclin D1 (setting [3]), 66 nM; against cdk2/cyclin E (setting [4]), 28 nM; in the series with PC-3 (Homo sapiens, PC-3, MTT assay) it was 1.37 µM.
The like results for `CC(C)(C)NC(=O)N1CCC(Nc2nc(N[C@H]3CC[C@H](N)CC3)nc3c2ncn3C2CCCC2)CC1` [compound 192, trans-4-[2-(4-Amino-cyclohexylamino)-9-cyclopentyl-9H-purin-6-ylamino]-piperidine-1-carboxylic acid tert-butyl-amide dihydrochloride] were, in that order, 1.49 µM, 1000 nM, 400 nM, 237 nM and 1.89 µM.
`N#Cc1cccc(NC(=O)N2CCC(Nc3nc(N[C@H]4CC[C@H](N)CC4)nc4c3ncn4C3CCCC3)CC2)c1` [compound 194, trans-4-[2-(4-Amino-cyclohexylamino)-9-cyclopentyl-9H-purin-6-ylamino]-piperidine-1-carboxylic acid (3-cyano-phenyl)-amide dihydrochloride]: the concentration for half-maximal inhibition (IC50) in the series on MDA-MB-435 (setting [1]) is 0.72 µM; against cdk1/cyclin B (setting [2]), 40 nM; against cdk4/cyclin D1 (setting [3]), 88 nM; against cdk2/cyclin E (setting [4]), 15 nM; in the series on PC-3 (Homo sapiens, PC-3, MTT assay) it was 0.89 µM.
Take `CCOC(=O)c1cccc(NC(=O)N2CCC(Nc3nc(N[C@H]4CC[C@H](N)CC4)nc4c3ncn4C3CCCC3)CC2)c1` [compound 195, trans-3-[(1-{4-[2-(4-Amino-cyclohexylamino)-9-cyclopentyl-9H-purin-6-ylamino]-piperidin-1-yl} -methanoyl)-amino]-benzoic acid ethyl ester dihydrochloride]: the 50% inhibitory concentration (IC50) with MDA-MB-435 (setting [1]) turned out to be 0.33 µM; against cdk1/cyclin B (setting [2]), 50 nM; at cdk4/cyclin D1 (setting [3]), 6 nM; at cdk2/cyclin E (setting [4]), 28 nM; with PC-3 (Homo sapiens, PC-3, MTT assay), 0.38 µM.
As for `Cc1cccc(Cl)c1NC(=O)N1CCC(Nc2nc(N[C@H]3CC[C@H](N)CC3)nc3c2ncn3C2CCCC2)CC1` [compound 196, trans-4-[2-(4-Amino-cyclohexylamino)-9-cyclopentyl-9H-purin-6-ylamino]-piperidine-1-carboxylic acid (2-chloro-6-methyl-phenyl)-amide dihydrochloride], the IC50 with MDA-MB-435 (setting [1]) was found to be 0.5 µM; against cdk1/cyclin B (setting [2]), 350 nM; on cdk4/cyclin D1 (setting [3]), 6 nM; against cdk2/cyclin E (setting [4]) it was 2 nM; with PC-3 (Homo sapiens, PC-3, MTT assay) it was 0.59 µM.
For `N[C@H]1CC[C@H](Nc2nc(NC3CCN(C(=O)NCCc4ccccc4)CC3)c3ncn(C4CCCC4)c3n2)CC1` [compound 197, trans-4-[2-(4-Amino-cyclohexylamino)-9-cyclopentyl-9H-purin-6-ylamino]-piperidine-1-carboxylic acid phenethyl-amide dihydrochloride], in that order: 0.91 µM, 200 nM, 381 nM, 8 nM and 1.09 µM.
For `COc1cc(NC(=O)N2CCC(Nc3nc(N[C@H]4CC[C@H](N)CC4)nc4c3ncn4C3CCCC3)CC2)cc(OC)c1OC` [compound 198, trans-4-[2-(4-Amino-cyclohexylamino)-9-cyclopentyl-9H-purin-6-ylamino]-piperidine-1-carboxylic acid (3,4,5-trimethoxy-phenyl)-amide dihydrochloride], in that order: 2.85 µM, 40 nM, 7 nM, 20 nM and 31.8 µM.
Take `N[C@H]1CC[C@H](Nc2nc(NC3CCN(C(=O)Nc4c(F)cccc4C(F)(F)F)CC3)c3ncn(C4CCCC4)c3n2)CC1` [compound 201, trans-4-[2-(4-Amino-cyclohexylamino)-9-cyclopentyl-9H-purin-6-ylamino]-piperidine-1-carboxylic acid (2-fluoro-6-trifluoromethyl-phenyl)-amide dihydrochloride]: the IC50 was found to be 1.53 µM in the series with MDA-MB-435 (setting [1]); 170 nM against cdk1/cyclin B (setting [2]); 986 nM against cdk4/cyclin D1 (setting [3]); 41 nM against cdk2/cyclin E (setting [4]); 1.9 µM in the series on PC-3 (Homo sapiens, PC-3, MTT assay).
The like results for `CCCCNC(=O)N1CCC(Nc2nc(N[C@H]3CC[C@H](N)CC3)nc3c2ncn3C2CCCC2)CC1` [compound 204, trans-4-[2-(4-Amino-cyclohexylamino)-9-cyclopentyl-9H-purin-6-ylamino]-piperidine-1-carboxylic acid butylamide dihydrochloride] were, in that order, 2.53 µM, 200 nM, 39 nM, 51 nM and 2.64 µM.
For `N[C@H]1CC[C@H](Nc2nc(NC3CCN(C(=O)NC4CCCCC4)CC3)c3ncn(C4CCCC4)c3n2)CC1` [compound 205, trans-4-[2-(4-Amino-cyclohexylamino)-9-cyclopentyl-9H-purin-6-ylamino]-piperidine-1-carboxylic acid cyclohexylamide dihydrochloride], in that order: 1.84 µM, 290 nM, 3250 nM, 232 nM and 1.63 µM.
Regarding `CCCNC(=O)N1CCC(Nc2nc(N[C@H]3CC[C@H](N)CC3)nc3c2ncn3C2CCCC2)CC1` [compound 206, trans-4-[2-(4-Amino-cyclohexylamino)-9-cyclopentyl-9H-purin-6-ylamino]-piperidine-1-carboxylic acid propylamide dihydrochloride], the IC50 in the series on MDA-MB-435 (setting [1]) is 2.68 µM; on cdk1/cyclin B (setting [2]) it was 210 nM; against cdk4/cyclin D1 (setting [3]) it was 85 nM; on cdk2/cyclin E (setting [4]), 7 nM; in the series with PC-3 (Homo sapiens, PC-3, MTT assay) it was 2.89 µM.
Regarding `Cc1ccccc1NC(=O)N1CCC(Nc2nc(N[C@H]3CC[C@H](N)CC3)nc3c2ncn3C2CCCC2)CC1` [compound 208, trans-4-[2-(4-Amino-cyclohexylamino)-9-cyclopentyl-9H-purin-6-ylamino]-piperidine-1-carboxylic acid (2-methyl-phenyl)-amide dihydrochloride], the concentration for half-maximal inhibition (IC50) in the series with MDA-MB-435 (setting [1]) came out at 0.47 µM; against cdk1/cyclin B (setting [2]), 180 nM; on cdk4/cyclin D1 (setting [3]), 73 nM; at cdk2/cyclin E (setting [4]) it was 8 nM; with PC-3 (Homo sapiens, PC-3, MTT assay), 0.68 µM.
For `CC(C)n1cnc2c(NC3CCN(C(=O)Nc4ccc(OC(F)(F)F)cc4)CC3)nc(N[C@H]3CC[C@H](N)CC3)nc21` [compound 211, trans-4-[2-(4-Amino-cyclohexylamino)-9-isopropyl-9H-purin-6-ylamino]-piperidine-1-carboxylic acid (4-trifluoromethoxy-phenyl)-amide dihydrochloride], in that order: 0.69 µM, 197 nM, 7000 nM, 612 nM and 0.56 µM.
On to “trans 1-{4-[2-(4-Amino-cyclohexylamino)-9-cyclopentyl-9H-purin-6-ylamino]-piperidin-1-yl}-3-(2,5-dimethoxy-phenyl)-propan-1-one dihydrochloride [compound 34]”, for which the IC50 with MDA-MB-435 (MTT assay) came out at 0.69 µM; at cdk1/cyclin B (read-out: CDK1 IC50, Histone H1, 10 µM ATP) it was 31 nM; on cdk4/cyclin D1 it was 997 nM; on cdk2/cyclin E (read-out: CDK2 IC50, GST-pRb substrate, 10 µM ATP) it was 58 nM; in the series on PC-3 (MTT assay), 0.67 µM.
